Experimental data taken from the supplement of paper PMC4862054.

How the values were obtained:
Assay in all cases: normalised response (% of control), CellTiter-Glo; higher = more viable cells (100 = DMSO, 0 = benzethonium chloride kill control)
Conditions in all cases: incubation time: 72 h
BT-474 = system: BT-474
Procedure, shortened: (§1)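 In 384-well plates holding compound at 5 concentrations in 10-fold steps over a 10,000-fold range specific to each compound, breast cancer cell lines were seeded as 20 µl suspension and incubated 72 h. CellTox Green fluorescence was measured at 485/520 nm, after which CellTiter-Glo luminescence was measured following 10 min at room temperature. Plate signals were normalised to 0.1 % DMSO (100) and a positive kill control (0), and each value is the normalised signal at a single concentration.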

BT-549 = system: BT-549
Procedure, shortened: as §1

CAL-120 = system: CAL-120
Procedure, shortened: as §1

CAL-148 = system: CAL-148
Procedure, shortened: as §1

CAL-51 = system: CAL-51
Procedure, shortened: as §1

CAL-85-1 = system: CAL-85-1
Procedure, shortened: as §1

DU-4475 = system: DU-4475
Procedure, shortened: as §1

HCC1143 = system: HCC1143
Procedure, shortened: as §1

HCC1599 = system: HCC1599
Procedure, shortened: as §1

HCC1937 = system: HCC1937
Procedure, shortened: as §1

HDQ-P1 = system: HDQ-P1
Procedure, shortened: as §1

Hs578T = system: Hs578T
Procedure, shortened: as §1

MCF-10A = system: MCF-10A
Procedure, shortened: as §1

MDA-MB-231 = system: MDA-MB-231
Procedure, shortened: as §1

MDA-MB-436 = system: MDA-MB-436
Procedure, shortened: as §1

MDA-MB-453 = system: MDA-MB-453
Procedure, shortened: as §1

MDA-MB-468 = system: MDA-MB-468
Procedure, shortened: as §1

MFM-223 = system: MFM-223
Procedure, shortened: as §1

SK-BR-3 = system: SK-BR-3
Procedure, shortened: as §1

Structure (SMILES)	normalised response (BT-474)	normalised response (BT-549)	normalised response (CAL-120)	normalised response (CAL-148)	normalised response (CAL-51)	normalised response (CAL-85-1)	normalised response (DU-4475)	normalised response (HCC1143)	normalised response (HCC1599)	normalised response (HCC1937)	normalised response (HDQ-P1)	normalised response (Hs578T)	normalised response (MCF-10A)	normalised response (MDA-MB-231)	normalised response (MDA-MB-436)	normalised response (MDA-MB-453)	normalised response (MDA-MB-468)	normalised response (MFM-223)	normalised response (SK-BR-3)
O=C(Nc1c[nH]nc1-c1nc2ccc(CN3CCOCC3)cc2[nH]1)NC1CC1 [AT9283] (0.1 nM)	102%	89%	45.5%	99.5%	81.9%	95.8%	101%	97%	109%	99.9%	96.8%	97.5%	97.5%	104%	97.5%	98.4%	97.2%	100%	90%
Cc1c(CN2CCN(C(=O)[C@H](C)O)CC2)sc2c(N3CCOCC3)nc(-c3cnc(N)nc3)nc12 [GDC-0980] (1 nM)	111%	105%	104%	112%	115%	105%	104%	96.7%	110%	98.9%	103%	103%	108%	109%	101%	94.9%	108%	98.8%	105%
Cc1c(CN2CCN(C(=O)[C@H](C)O)CC2)sc2c(N3CCOCC3)nc(-c3cnc(N)nc3)nc12 [GDC-0980] (10 nM)	106%	101%	97.4%	117%	90.2%	96.9%	101%	106%	105%	107%	94.4%	98.3%	109%	107%	104%	97.5%	113%	106%	108%
COc1nc(N)nc2c1ncn2[C@@H]1O[C@H](CO)[C@@H](O)[C@@H]1O [Nelarabine] (10 nM)	87.5%	99.5%	90.8%	81.3%	77.6%	96.4%	98%	96.2%	88.6%	102%	89.9%	96.5%	88.7%	97.4%	97.7%	88.1%	90.5%	88%	70.6%
CS(=O)(=O)N1CCN(Cc2cc3nc(-c4cccc5[nH]ncc45)nc(N4CCOCC4)c3s2)CC1 [Pictilisib] (10 nM)	98.3%	95.7%	91.4%	105%	110%	103%	102%	99.8%	102%	99.7%	95.3%	96.3%	102%	94.2%	98.9%	101%	101%	96.7%	105%
CCCCC/C=C/C=C1/C(=O)C=C[C@@H]1C/C=C\CCCC(=O)O [15D-PGJ2] (0.08 nM)	102%	98.4%	102%	108%	96.8%	95.3%	96.6%	102%	101%	94.5%	104%	99.6%	103%	106%	102%	111%	95.8%	103%	106%
O=C(CCBr)N1CCN(C(=O)CCBr)CC1 [Pipobroman] (10 nM)	102%	101%	99.5%	105%	89.7%	102%	106%	100%	117%	104%	105%	101%	109%	98.2%	98.8%	104%	108%	101%	107%
CC(C)N(CCCNC(=O)Nc1ccc(C(C)(C)C)cc1)C[C@H]1O[C@@H](n2cc(Br)c3c(N)ncnc32)[C@H](O)[C@@H]1O [SGC0946] (10 nM)	98.8%	93.1%	92.9%	91.2%	108%	94%	93.6%	99.9%	93.8%	89.6%	97.2%	98.1%	97.4%	97.5%	92.3%	89.4%	86.9%	96.6%	105%
CC(=O)OC[C@H]1O[C@@H]([S-])[C@H](OC(C)=O)[C@@H](OC(C)=O)[C@@H]1OC(C)=O.CCP(CC)CC.[Au+] [Auranofin] (0.25 nM)	99.4%	97.4%	100%	101%	70.1%	93.8%	97.9%	99%	75.3%	92.3%	99.9%	104%	108%	104%	93.8%	103%	95.7%	103%	101%
Nc1ccccc1NC(=O)c1ccc(CNc2nccc(-c3cccnc3)n2)cc1 [Mocetinostat] (1 nM)	100%	98.5%	102%	109%	85.2%	101%	105%	96.7%	91.5%	102%	101%	99.3%	91.6%	103%	111%	114%	101%	98.1%	103%
C[C@]12C=CC(=O)C=C1CC[C@@H]1[C@@H]2[C@@H](O)C[C@@]2(C)[C@H]1CC[C@]2(O)C(=O)CO [Prednisolone] (10 nM)	112%	99.8%	103%	113%	99.4%	102%	106%	100%	97.6%	100%	100%	101%	112%	108%	95.9%	106%	105%	104%	112%
COc1ccc(-c2cc3c(C)nc(N)nc3n([C@H]3CC[C@H](OCCO)CC3)c2=O)cn1 (10 nM)	88.8%	89.6%	92.3%	87.8%	82.8%	90.8%	93.2%	96.5%	89.3%	86.2%	87.2%	94.8%	79.8%	90.7%	85.4%	83.5%	82.6%	88.9%	67.2%
O=C(CCBr)N1CCN(C(=O)CCBr)CC1 [Pipobroman] (1 nM)	96.6%	105%	99.4%	111%	106%	103%	106%	99.4%	105%	104%	104%	102%	103%	97.8%	91.7%	98.1%	105%	99.1%	115%
Nc1cccc2c1CN(C1CCC(=O)NC1=O)C2=O (configuration not stated) [Lenalidomide] (1 nM)	97%	101%	94.9%	97.8%	113%	108%	106%	93.1%	106%	94%	97.9%	97.1%	96.1%	98.4%	94%	112%	110%	97.3%	107%
CNC(=O)c1cc(Oc2ccc(NC(=O)Nc3ccc(Cl)c(C(F)(F)F)c3)cc2)ccn1 [Sorafenib] (0.1 nM)	105%	104%	100%	106%	118%	101%	101%	99.7%	103%	97.7%	99.7%	98.3%	95.7%	107%	102%	108%	101%	98.8%	102%
O=C1c2c(O)ccc(O)c2C(=O)c2c(NCCNCCO)ccc(NCCNCCO)c21 [Mitoxantrone] (1 nM)	94.5%	91.3%	96.9%	101%	73.6%	100%	99.1%	98.3%	96.7%	98.7%	96.2%	102%	97.8%	100%	98.8%	103%	100%	106%	100%
CC/C(=C(\c1ccc(O)cc1)c1ccc(OCCN(C)C)cc1)c1ccccc1 [4-hydroxytamoxifen] (1 nM)	101%	107%	98.6%	102%	91.2%	100%	99.4%	95%	96%	99.6%	97.7%	108%	101%	96.6%	103%	107%	98.8%	101%	107%
c1cc(CN2CCCNCCNCCCNCC2)ccc1CN1CCCNCCNCCCNCC1 [Plerixafor] (1 nM)	95.8%	105%	102%	98.5%	82.4%	92.3%	91%	98.7%	105%	95.9%	103%	98.2%	81.4%	96.9%	94.3%	87.1%	97.3%	85.5%	81.3%
